Our source for the IC50 and Ki values is US20100298299A1, “NON-PEPTIDE DERIVATIVES AS BRADYKININ B1 ANTAGONISTS” (priority 2007, published 2010).

Each structure is given as a SMILES string. Structures can show the parent of a compound that is named as a salt. Where two headings read alike, the source gives them in different places.

For assay [1], the target named is T1, recombinant human B1 receptors (Homo sapiens, UniProt P46663).
T1 construct: host or cells: CHO (CHO-B1)
T1 sequence (P46663 1-353): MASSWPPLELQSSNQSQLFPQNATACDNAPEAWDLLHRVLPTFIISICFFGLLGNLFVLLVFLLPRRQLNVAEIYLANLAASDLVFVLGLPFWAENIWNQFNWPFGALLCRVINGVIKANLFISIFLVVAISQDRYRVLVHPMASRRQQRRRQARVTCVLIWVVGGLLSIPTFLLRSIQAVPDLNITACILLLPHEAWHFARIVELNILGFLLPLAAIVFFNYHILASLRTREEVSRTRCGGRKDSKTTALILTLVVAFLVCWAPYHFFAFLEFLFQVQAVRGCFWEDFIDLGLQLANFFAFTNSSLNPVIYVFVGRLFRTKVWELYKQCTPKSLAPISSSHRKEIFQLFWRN
Description: Functional assay: antagonist potency by cytosolic calcium measurement in CHO-B1 cells. The class given is cell-based. The protocol: Assessment of Antagonist Potency at B1 and B2 Receptors In Vitro by Measurement of Cytosolic Calcium Ion Concentration with a Plate Reader Fluorimeter in Cells Expressing Recombinant Human B1 or B2 Receptors
Chinese hamster ovary (CHO) cells stably expressing recombinant human B1 (CHO-B1, Euroscreen) or B2 (CHO-B2, Perkin-Elmer) receptors were cultured in Dulbecco's Modified Eagle's Medium (DMEM) containing 10% Fetal Calf Serum (FCS), 100 U/ml penicillin, 0.1 mg/ml streptomycin, 0.25 μg/ml amphotericin B, 1% Minimum Essential Medium Eagle (MEM), non essential amino acid solution, 600 μg/ml G418, 1% pyruvate (for the B2 cell line). Cells were kept at 37° C. in a humidified incubator in an atmosphere of 5% CO2/95% air and were passaged 1:4 three times a week. Cells were plated at 1.5−2.5×10^4 cell/well on standard 96-well microplates, measurements of cytosolic calcium ion concentration ([Ca^2+]i) were carried out 1-2 days after cell plating.
Measurements of [Ca^2+]i were carried out on CHO-B1 and CHO-B2 cells stably expressing human B1 and B2 receptors, respectively. Cells were grown in standard 96-well microplates and before the measurement were loaded with a fluorescent Ca^2+-sensitive dye, fluo-4/AM (2 μM): after removing the culture medium the dye was added to the cells (dissolved in assay buffer: 145 mM NaCl, 5 mM KCl, 2 mM MgCl2, 2 mM CaCl2, 10 mM HEPES, 20 mM D-glucose, 2 mM probenecid, 100 μl/well) and cells were incubated at 37° C. in a humidified incubator in an atmosphere of 5% CO2/95% air for 40-120 min. To stop dye loading cells were washed twice with assay buffer. After washing, various concentrations of the test compounds (diluted in extracellular medium from a DMSO stock solution, final DMSO concentration was <0.1%) or buffer were added to each well depending on the experimental setup. After incubation at 37° C. for 20-25 min. baseline and agonist-evoked changes of [Ca^2+]i were measured column by column with a plate reader fluorimeter (Fluoroskan Ascent, Labsystems). Excitation and detection of emission was carried out from the bottom of the plate. Filters used for Fluo-4: excitation filter—485 nm, emission filter—538 nm. The whole measurement process was performed at 37° C. and was controlled by custom software. Inhibitory potency of the test compounds was assessed by measuring the reduction in the agonist-evoked [Ca^2+]i-elevation in the presence of different concentrations of the compounds. The agonists were LysDABK for CHO-B1, and bradykinin for CHO-B2 cells. Agonists were applied at an EC80 concentration, the EC80-values were derived from daily determined dose-response curves. Fluorescence data were expressed as ΔF/F (fluorescence change normalized to baseline). All treatments on a single plate were measured in multiple wells. Data from all wells with the same treatment were averaged and the average values were used for analysis. Inhibitory potency of a compound at a single concentration point was expressed as percent inhibition of the control agonist response. Sigmoidal concentration-inhibition curves were fitted to the data (derived from at least three independent experiments) and IC50-values were determined as the concentration that produces half of the maximal inhibition caused by the compound.

Assay [2] addresses T2, human recombinant bradykinin B1 receptor (Homo sapiens, UniProt P46663).
T2 construct: purchased Euroscreen ES-091; host or cells: CHO cells
T2 sequence (P46663 1-353): T1 sequence (P46663 1-353)
Description: Human recombinant bradykinin B1 receptor binding. As for the experimental part: 1. Human Recombinant Bradykinin B1 Receptor Binding
Binding assays were carried out on human recombinant bradykinin) receptors (expressed in CHO cells) according to the Euroscreen Technical Data Sheet (Cat. No.: ES-091). 20 μg protein/tube was incubated with [3,4-prolyl-3,4-^3H(N)]-[Des-Arg^10] Kallidin as radioligand. Non specific binding was determined in the presence of 10 μM Lys-des-Arg^9-Bradykinin. The final incubation volume was 250 μl. Samples were incubated for 15 min. at 25° C. then were rapidly vacuum filtered through GF/B filters presoaked for at least 1 h in 0.5% PEI. Radioactivity was determined by liquid scintillation spectroscopy.

[3] abbreviates: CHO-B1 cells, inhibition of LysDABK (EC80)-evoked [Ca2+]i elevation, read-out: B1 func.
Where [4] appears, read: CHO cell membranes, [3H]-[Des-Arg10] Kallidin radioligand, read-out: B1 binding.
Setting [5] is: reference compounds, functional test, read-out: IC50.
[6] abbreviates: reference compounds, binding test, read-out: Ki.

As for `CN1CCC(N2CCN(C(=O)[C@H](Cc3ccc(O)cc3)NC(=O)c3ccc(S(=O)(=O)Nc4ccccc4Oc4ccccc4)cc3)CC2)CC1` [Example 37, (S)—N-{1-(4-Hydroxy-benzyl)-2-[4-(1-methyl-piperidin-4-yl)-piperazin-1-yl]-2-oxo-ethyl}-4-(2-phenoxy-phenylsulfamoyl)-benzamide], the IC50 in assay [1] (setting [3]) is less than 20 nM. The Ki in assay [2] (setting [4]) is less than 20 nM.

For the compound `O=C(CNC(=O)c1ccc(S(=O)(=O)Nc2ccccc2Sc2ccccc2)cc1)NCC1CCNCC1` [Example 39, 4-(2-Phenylsulfanyl-phenylsulfamoyl)-N-{[(piperidin-4-ylmethyl)-carbamoyl]-methyl}-benzamide hydrochloride], the IC50 in assay [1] (setting [3]) was less than 20 nM. Also, the Ki in assay [2] (setting [4]) is less than 20 nM.

With `CN1CCN(C(=O)C2CCN(S(=O)(=O)c3ccc(NCC(c4ccccc4)c4ccccc4)c(C(=O)N4CCOCC4)c3)CC2)CC1` [NVP-SAA164, 4-{2-[(2,2-diphenyl-ethyl)-amino]-5-{4-[4-[(4-methyl-1-piperazinyl)-carbonyl]-1-piperidinyl]-sulfonyl}-benzoyl}-morfoline, reference compound], the IC50 in assay [1] (setting [5]) worked out at 33 nM. For the same compound, in assay [2] (setting [6]), the Ki came to 8 nM.

Consider `CCCN1C(=O)[C@H](NC(=O)Nc2ccc(N3CCC(N4CCCCC4)CC3)cc2)N=C(c2ccc(C)cc2)c2ccccc21` [compound 3, N-[4-(4′-bipiperidin)-1′-ylphenyl]-N′-[(3R)-2,3-dihydro-5-(4-methyl-phenyl)-2-oxo-1-propyl-1H-1,4-benzodiazepin-3-yl]-urea, reference compound], for which, in assay [1] (setting [5]), the IC50 is 64.5 nM. Besides, in assay [2] (setting [6]), the Ki came out at 13.4 nM.
